{
  "source": "patent US8895019B2",
  "about": "“Biofilm treatment” (Oral Health Australia Pty Ltd, priority 2007, dated 2014)",
  "key": {"[1]": {"system": "P. gingivalis (ATCC 33277) biofilm", "test": "Viability of cells dispersed by Oxantel treatment, static 24 well biofilm assay, colony forming units", "type": "cell-based, Porphyromonas gingivalis", "settings": "especially for the 12.5 μM Oxantel treated biofilm, 30 min", "procedure": "To test the viability of cells dispersed by Oxantel treatment, a static biofilm assay was performed as described above but with slight modifications. Briefly P. gingivalis (ATCC 33277) was allowed to form biofilm in 24 well microplates after 18 h incubation. The free floating planktonic cells were first removed and the biofilm washed once with PBS. 1 mL of 125 uM or 12.5 uM of Oxantel or sterile water […] was added to each well and incubated for 30 min. The number of dispersed P. gingivalis cells that are still viable was determined by cultural analysis on horse blood agar plates after serial dilution in BHI."}, "[2]": {"system": "P. gingivalis ATCC 33277 biofilm", "test": "Biofilm formation in static 96 well model, crystal violet stain", "type": "cell-based, Porphyromonas gingivalis", "procedure": "P. gingivalis biofilm formation over 48 h in a static 96 well model was determined as described previously. Briefly P. gingivalis ATCC 33277 cells were resuspended to a final cell density of 2.5×10^7 before mixing with the test substances followed by transferring into 96 well flat bottom plates and incubated anaerobically at 37° C. Assessment of the biofilm mass was carried out at 24 h and 48 h by washing the cells twice with 250 μL of ultra pure water to remove loosely adhered cells followed by drying at 37° C. for 3 h. The dried biofilm was then stained in a solution of 0.1% crystal violet for 15 min and washed 2 times with 250 μL ultra pure water. The crystal violet stain was then dissolved from the biofilm using a solution of 80% ethanol and 20% acetone for 2 min through repeated pipetting before transferring to a new 96 well plate for measurement of the optical density at 620 nm."}, "[3]": {"system": "P. gingivalis ATCC 33277", "test": "Effect of Oxantel on growth of P. gingivalis ATCC 33277 in liquid culture over 50 h", "type": "cell-based", "settings": "Porphyromonas gingivalis, ATCC33277; P. gingivalis ATCC 33277, growth over 50 h"}, "[4]": {"system": "P. gingivalis W50", "test": "Susceptibility of P. gingivalis to Frd inhibiting agents: growth in liquid culture, OD 620 nm over 50 h", "type": "cell-based, Porphyromonas gingivalis", "procedure": "(§1) The effect of Frd inhibiting agents on P. gingivalis was carried out in liquid cultures. Briefly W50 was cultured in 200 mL BHI medium until OD of 0.6 (˜2.9×10^8 cfu/mL). The cells were then resuspended in fresh growth medium to a final concentration of 2.5×10^7 cfu/mL. Oxantel pamonate, morantel citrate and thiabendazole (Sigma) were dissolved in DMSO to achieve stock concentrations of 250 mM. 4 μL of the test solution was then mixed with 196 μL of cell suspension and transferred into 96 well flat bottom plates followed by incubation at 37° C. under anaerobic conditions and monitored hourly over a 50 h period by measuring the optical density of the culture at 620 nm using an iEMS microplate reader (Labsystems OY Research Technologies Division). Mean generation times of P. gingivalis in the presence of different inhibiting agents were calculated by […] where Nt and N0 are cells population at time t and time zero, respectively."}, "[5]": {"system": "P. gingivalis ATCC 33277 biofilm", "test": "Flowcell biofilm culture and CLSM analysis (COMSTAT)", "type": "cell-based, Porphyromonas gingivalis", "description": "The biofilm culture of P. gingivalis ATCC 33277 in flow cells was similar to that previously described with several modifications. A 3-channel flow cell system (Stovall Life Science, USA) was set up in an anaerobic chamber (MK3 Anaerobic workstation; Don Whitley Scientific Ltd.) and was modified with silicon pump tubing (Gilson, France) and stopcocks for inoculation, testing and staining of the bacterial biofilms. All parts were assembled and 0.5% sodium hypochlorite was pumped into the system and left overnight to sterilise the system. Sterile water (200 mL) was then used to flush the system before growth medium addition. The system was inoculated with 1 mL of an exponentially growing P. gingivalis diluted to 0.1 OD600. The system was incubated for 1 h prior to constant flow (0.2 mL/min) of 5× diluted BHI (Oxoid) supplemented with 0.1 g/L cysteine, 1 mg/L heamin and 1 mg/L vitamin K. […] The flow of medium was resumed for another 10 min to wash off any unbound cells due to testing. BacLight stain (Molecular Probes) was then used to stain the biofilm in situ (see below).\nConfocal laser scanning microscopy (CLSM) of the bacterial biofilms was carried out on a Meta 510 Confocal Microscope with an inverted stage (Zeiss). Horizontal (xy) optodigital sections, each 2 μm thick over the entire thickness of the biofilm (z) were imaged using a 63× objective at 512×512 pixel (0.28 μm per pixel), with each frame at 143.86 μm (x)×143.86 μm (y). To determine reproducibility across the biofilm 5 images at random positions from each of two biological replicates were obtained at wavelengths of 488 nm and 568 nm for each channel. All images obtained were analysed using COMSTAT software. Microcolonies were defined as cluster of cells with >500 pixel counts."}, "[6]": {"test": "Solubility limit seen in the growth assay", "type": "physicochemical", "settings": "growth assay medium (P. gingivalis W50 liquid culture), 37 °C, kinetic from dmso stock, read-out: insolubility (concentration above which insoluble)", "procedure": "as §1"}, "[7]": {"settings": "Porphyromonas gingivalis, P. gingivalis W50, growth over 50 h, read-out: MIC"}, "[8]": {"settings": "12.5 μM Oxantel vs Control, Biological Replicate 1"}, "[9]": {"settings": "12.5 μM Oxantel, Biological Replicate 1"}, "[10]": {"settings": "12.5 μM Oxantel, Biological Replicate 2, first channel"}, "[11]": {"settings": "12.6 μM Oxantel (so in the source), Biological Replicate 2, second channel"}, "[12]": {"settings": "125 μM Oxantel vs Control, Biological Replicate 1"}, "[13]": {"settings": "125 μM Oxantel, Biological Replicate 1"}, "[14]": {"settings": "Biological Replicate 2, based on average of both replicates over the control sample"}, "[15]": {"settings": "mature biofilm treated with Oxantel (125 μM or 12.5 μM, 30 min) vs control, P<0.01"}},
  "note": "Where two headings read alike, the source gives them in different places. Marks after values point to notes of the source that are not given here.",
  "data": [
    {"smiles": "CN1CCCN=C1/C=C/c1cccc(O)c1", "note": "[Oxantel]", "values": [
      {"measurement": "viability of cells released from the biofilm", "setting": "[1]", "result": "remained viable"},
      {"measurement": "concentration that significantly reduced the biofilm mass at 24 h", "setting": "[2]; ATCC 33277, 24 h biofilm, subMIC", "result": "≥ 0.1", "unit": "µM"},
      {"measurement": "concentration necessary for an inhibitory effect on the biofilm mass at 48 h", "setting": "[2]; ATCC 33277, 48 h biofilm", "result": "≥ 3.9", "unit": "µM"},
      {"measurement": "MIC", "setting": "[3]", "result": 125, "unit": "µM"},
      {"measurement": "concentration with positive inhibition of growth", "setting": "[4]; P. gingivalis W50, from the growth curves", "result": "more than 15 μM"},
      {"measurement": "MIC", "setting": "[4]; [7]", "result": 112, "unit": "µM"},
      {"measurement": "Total biomass", "setting": "[5]; 12.5 μM Oxantel added to 16 h biofilm, Biological Replicate 1, COMSTAT, 3-channel flow cell", "result": "1.26^a μm^3/μm^2"},
      {"measurement": "Average microcolony area % reduction", "setting": "[5]; [8]", "result": 37.2, "unit": "%"},
      {"measurement": "Average thickness % reduction", "setting": "[5]; [8]", "result": 39.7, "unit": "%"},
      {"measurement": "Total biomass % reduction", "setting": "[5]; [8]", "result": 30.1, "unit": "%"},
      {"measurement": "Ave microcolonies (by pixel, minimum 500)", "setting": "[5]; [9]", "result": 17.4},
      {"measurement": "Average microcolony area", "setting": "[5]; [9]", "result": "147.65^a μm^2"},
      {"measurement": "Average thickness", "setting": "[5]; [9]", "result": "0.70^a μm"},
      {"measurement": "Surface to biovolume ratio", "setting": "[5]; [9]", "result": "2.04^a μm^2/μm^3"},
      {"measurement": "Ave microcolonies (by pixel, minimum 500)", "setting": "[5]; [10]", "result": 18.4},
      {"measurement": "Average microcolony area", "setting": "[5]; [10]", "result": "119.571^a μm^2"},
      {"measurement": "Average thickness", "setting": "[5]; [10]", "result": "0.911^a μm"},
      {"measurement": "Surface to biovolume ratio", "setting": "[5]; [10]", "result": "2.331^a μm^2/μm^3"},
      {"measurement": "Total biomass", "setting": "[5]; [10]", "result": "1.451^a μm^3/μm^2"},
      {"measurement": "Ave microcolonies (by pixel, minimum 500)", "setting": "[5]; [11]", "result": 19.2},
      {"measurement": "Average microcolony area", "setting": "[5]; [11]", "result": "104.881^a μm^2"},
      {"measurement": "Average thickness", "setting": "[5]; [11]", "result": "0.891^a μm"},
      {"measurement": "Surface to biovolume ratio", "setting": "[5]; [11]", "result": "2.541^a μm^2/μm^3"},
      {"measurement": "Total biomass", "setting": "[5]; [11]", "result": "1.621^a μm^3/μm^2"},
      {"measurement": "Total biomass", "setting": "[5]; 125 μM Oxantel added to 16 h biofilm, Biological Replicate 1", "result": "1.00^a μm^3/μm^2"},
      {"measurement": "Average microcolony area % reduction", "setting": "[5]; [12]", "result": 50.94, "unit": "%"},
      {"measurement": "Average thickness % reduction", "setting": "[5]; [12]", "result": 63.2, "unit": "%"},
      {"measurement": "Total biomass % reduction", "setting": "[5]; [12]", "result": 44.4, "unit": "%"},
      {"measurement": "Ave microcolonies (by pixel, minimum 500)", "setting": "[5]; [13]", "result": 20.8},
      {"measurement": "Average microcolony area", "setting": "[5]; [13]", "result": "115.42^a μm^2"},
      {"measurement": "Average thickness", "setting": "[5]; [13]", "result": "0.43^a μm"},
      {"measurement": "Surface to biovolume ratio", "setting": "[5]; [13]", "result": "2.27^b μm^2/μm^3"},
      {"measurement": "Average microcolony area % reduction", "setting": "[5]; [14]", "result": 37.9, "unit": "%"},
      {"measurement": "Average thickness % reduction", "setting": "[5]; [14]", "result": 49.9, "unit": "%"},
      {"measurement": "Total biomass % reduction", "setting": "[5]; [14]", "result": 42.8, "unit": "%"},
      {"measurement": "number of microcolonies", "setting": "[5]; Oxantel treated vs control samples", "result": "no significant difference"},
      {"measurement": "biofilm depth", "setting": "[5]; [15]", "result": "significant reduction"},
      {"measurement": "size of microcolonies", "setting": "[5]; [15]", "result": "significant reduction"}
    ]},
    {"smiles": "c1ccc2[nH]c(-c3cscn3)nc2c1", "note": "[Thiabendazole]", "values": [
      {"measurement": "solubility", "setting": "[6]", "result": "> 3000", "unit": "µM"},
      {"measurement": "concentration required for slight inhibitory effects on the growth", "setting": "[4]; P. gingivalis W50, growth over 50 h", "result": "more than 1 mM"},
      {"measurement": "MIC", "setting": "[4]; [7]", "result": "> 3000", "unit": "µM"}
    ]},
    {"smiles": "Cc1ccsc1/C=C/C1=NCCCN1C", "note": "[Morantel]", "values": [
      {"measurement": "MIC", "setting": "[4]; P. gingivalis W50, growth over 50 h, read-out: MIC", "result": 2800, "unit": "µM"},
      {"measurement": "MIC", "setting": "[4]; Porphyromonas gingivalis, W50, 50 h, P. gingivalis W50, growth over 50 h", "result": "~3000", "unit": "µM"}
    ]}
  ]
}
